How the values were obtained:
GST-tagged FAK = biological target: T1, GST-tagged FAK (Homo sapiens, UniProt Q05397); test: Biochemical assay for FAK activity, Assay 1: phosphorylation of peptide substrate with radio-labeled ATP; conditions: 5 μM ATP, 30 min pre-incubation, read-out: Assay 1 FAK TRF PXC50 (converted)
T1 construct: purchased Invitrogen PV3832
Experimental: GST-tagged (glutathione S-transferase-tagged) FAK was purchased from Invitrogen (PV3832) (www.invitrogen.com). […] To measure inhibitors of FAK, compounds were first prepared as a 10× stock in 10% DMSO. […] A 6-nM GST-FAK solution was prepared in 1.1× reaction buffer containing 44 mM HEPES, pH=7.2, 11 mM MgCl2, 2.2 mM MnCl2, 1.1 mM DTT and 0.011% Tween-20. Then, 20 μL of the 6 nM GST-FAK solution were pre-incubated with the compounds for 30 min at room temperature. […] The reaction was allowed to proceed for 90 min before being quenched with 40 μL of 1% H3PO4. A portion of the reaction mixture (60 μL) was transferred to a phospho-cellulose filter plate (Millipore; www.millipore.com, MAPHNOB50) and incubated for 20 minutes. The plate was filtrated, washed three times using 150 μL of 0.5% H3PO4 and dried at 50° C. for 30 min. After the addition of 60 μL Microscint-20 to the plate, radioactivity was measured using a TopCount (PerkinElmer; www.PerkinElmer.com).

[1] = biological target: T2, Full length Human FAK (Flag-His-TEV-FAK1) (Homo sapiens, UniProt Q05397); test: Biochemical assay for FAK activity, Assay 2: LANCE Ultra ULight peptide phosphorylation, 665 nm/615 nm ratio; conditions: Flag-His-TEV-FAK1, 10 μM ATP, 30 min pre-incubation; read-out: Assay 2 FAK H 31284A TRF PXC50 (converted)
T2 construct: Full length Human FAK was expressed using baculovirus in Sf9 cells; made in house; host or cells: baculovirus in Sf9 cells
T2 sequence (Q05397 whole entry): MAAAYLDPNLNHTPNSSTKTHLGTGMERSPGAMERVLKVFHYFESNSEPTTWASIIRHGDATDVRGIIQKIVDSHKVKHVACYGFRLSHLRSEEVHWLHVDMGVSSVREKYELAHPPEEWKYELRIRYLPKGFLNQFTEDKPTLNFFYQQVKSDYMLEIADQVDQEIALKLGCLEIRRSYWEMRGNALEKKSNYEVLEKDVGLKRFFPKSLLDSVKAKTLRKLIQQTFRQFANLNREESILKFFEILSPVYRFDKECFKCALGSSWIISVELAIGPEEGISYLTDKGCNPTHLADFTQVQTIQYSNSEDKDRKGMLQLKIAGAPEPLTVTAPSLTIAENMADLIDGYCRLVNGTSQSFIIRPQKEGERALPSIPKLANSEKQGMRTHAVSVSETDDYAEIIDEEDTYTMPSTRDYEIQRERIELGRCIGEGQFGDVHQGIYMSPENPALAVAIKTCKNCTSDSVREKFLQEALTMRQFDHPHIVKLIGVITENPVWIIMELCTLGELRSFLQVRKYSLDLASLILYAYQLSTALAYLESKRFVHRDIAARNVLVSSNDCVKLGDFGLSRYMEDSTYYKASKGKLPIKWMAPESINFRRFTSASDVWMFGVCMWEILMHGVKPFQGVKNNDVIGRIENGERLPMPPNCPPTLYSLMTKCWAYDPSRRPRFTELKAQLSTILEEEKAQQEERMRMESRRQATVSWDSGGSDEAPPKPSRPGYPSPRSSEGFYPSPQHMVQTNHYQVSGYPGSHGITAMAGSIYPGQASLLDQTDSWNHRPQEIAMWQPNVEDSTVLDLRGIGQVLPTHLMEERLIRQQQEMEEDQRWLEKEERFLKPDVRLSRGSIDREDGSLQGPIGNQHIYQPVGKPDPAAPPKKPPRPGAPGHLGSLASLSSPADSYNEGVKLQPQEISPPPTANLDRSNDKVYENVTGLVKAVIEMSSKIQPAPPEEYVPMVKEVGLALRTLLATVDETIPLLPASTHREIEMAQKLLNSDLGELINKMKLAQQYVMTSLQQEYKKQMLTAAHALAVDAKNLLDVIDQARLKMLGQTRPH

T1 sequence (Q05397 whole entry): as above

IC50 (GST-tagged FAK) [nM]	IC50 [1] [nM]	SMILES
1	7.94	CNC(=O)c1ccccc1Nc1cc(Nc2cc(C)nn2C)ncc1Cl [Example 5, 2-({5-Chloro-2-[(1,3-dimethyl-1H-pyrazol-5-yl)amino]-4-pyridinyl}amino)-N-methylbenzamide]
2	6.31	CNC(=O)c1cc(Cl)ccc1Nc1cc(Nc2cc(C)nn2C)ncc1Cl [Example 11, 5-Chloro-2-({5-chloro-2-[(1,3-dimethyl-1H-pyrazol-5-yl)amino]-4-pyridinyl}amino)-N-methylbenzamide]
